Source: the NIST ThermoML archive (doi:10.1021/acs.jced.8b00692)
± gives the expanded uncertainty stated by the source.

Assay: xn = mol fraction of the nth substance listed
Settings: 102 kPa, Liquid; for viscosity: Concentric cylinders viscometry; for speed of sound: Frequency=3 MHz, Single path-length method; for mass density: Vibrating tube method

CCCCCCCCCCCCC1CCCCC1 [dodecylcyclohexane] + CCCCCCCCCCCCCCCC
Settings	mass density [kg/m3]	speed of sound [m/s]	viscosity [mPa·s]
293.15 K, x1 = 0.2002	783.66 ± 0.81	1370.4 ± 0.7	4.02 ± 0.02
293.15 K, x1 = 0.4001	793.67 ± 0.81	1384 ± 0.7	4.72 ± 0.02
293.15 K, x1 = 0.5001	798.59 ± 0.81	1390.6 ± 0.7	5.11 ± 0.02
293.15 K, x1 = 0.6003	803.47 ± 0.81	1396.7 ± 0.7	5.49 ± 0.05
293.15 K, x1 = 0.8001	812.98 ± 0.81	1410.4 ± 0.8	6.49 ± 0.03
293.15 K, x1 = 1	822.31 ± 0.81	1423.3 ± 0.9	7.76 ± 0.04
303.15 K, x1 = 0.2002	776.77 ± 0.81	1333.2 ± 0.7	3.17 ± 0.02
303.15 K, x1 = 0.4001	786.84 ± 0.81	1347 ± 0.7	3.66 ± 0.02
303.15 K, x1 = 0.5001	791.79 ± 0.81	1353.7 ± 0.7	3.95 ± 0.02
303.15 K, x1 = 0.6003	796.69 ± 0.81	1359.9 ± 0.7	4.23 ± 0.02
303.15 K, x1 = 0.8001	806.26 ± 0.81	1373.4 ± 0.8	4.93 ± 0.02
303.15 K, x1 = 1	815.65 ± 0.81	1386.3 ± 0.9	5.81 ± 0.03
313.15 K, x1 = 0.2002	769.91 ± 0.81	1296.9 ± 0.7	2.56 ± 0.02
313.15 K, x1 = 0.4001	780.03 ± 0.81	1310.8 ± 0.7	2.92 ± 0.02
313.15 K, x1 = 0.5001	785.01 ± 0.81	1317.6 ± 0.7	3.13 ± 0.02
313.15 K, x1 = 0.6003	789.93 ± 0.81	1323.8 ± 0.7	3.34 ± 0.02
313.15 K, x1 = 0.8001	799.57 ± 0.81	1337.3 ± 0.8	3.85 ± 0.02
313.15 K, x1 = 1	809.01 ± 0.81	1350.4 ± 0.9	4.48 ± 0.02
323.15 K, x1 = 0.2002	763.05 ± 0.81	1261.2 ± 0.7	2.1 ± 0.02
323.15 K, x1 = 0.4001	773.23 ± 0.81	1275.3 ± 0.7	2.38 ± 0.02
323.15 K, x1 = 0.5001	778.23 ± 0.81	1282.1 ± 0.7	2.54 ± 0.02
323.15 K, x1 = 0.6003	783.19 ± 0.81	1288.5 ± 0.7	2.7 ± 0.02
323.15 K, x1 = 0.8001	792.89 ± 0.81	1302 ± 0.8	3.09 ± 0.02
323.15 K, x1 = 1	802.37 ± 0.81	1315.2 ± 0.9	3.55 ± 0.02
333.15 K, x1 = 0.2002	756.19 ± 0.81	1226.5 ± 0.7	1.76 ± 0.01
333.15 K, x1 = 0.4001	766.43 ± 0.81	1240.6 ± 0.7	1.97 ± 0.02
333.15 K, x1 = 0.5001	771.46 ± 0.81	1247.5 ± 0.7	2.1 ± 0.02
333.15 K, x1 = 0.6003	776.44 ± 0.81	1254.3 ± 0.7	2.23 ± 0.02
333.15 K, x1 = 0.8001	786.2 ± 0.81	1267.8 ± 0.8	2.53 ± 0.02
333.15 K, x1 = 1	795.74 ± 0.81	1281.1 ± 0.9	2.88 ± 0.02
343.15 K, x1 = 0.2002	749.3 ± 0.8	–	1.49 ± 0.01
343.15 K, x1 = 0.4001	759.7 ± 0.8	–	1.67 ± 0.01
343.15 K, x1 = 0.5001	764.7 ± 0.8	–	1.77 ± 0.01
343.15 K, x1 = 0.6003	769.7 ± 0.8	–	1.88 ± 0.02
343.15 K, x1 = 0.8001	779.6 ± 0.8	–	2.11 ± 0.02
343.15 K, x1 = 1	789.1 ± 0.8	–	2.39 ± 0.02
353.15 K, x1 = 0.2002	742.4 ± 0.8	–	1.28 ± 0.01
353.15 K, x1 = 0.4001	752.9 ± 0.8	–	1.43 ± 0.01
353.15 K, x1 = 0.5001	757.9 ± 0.8	–	1.51 ± 0.01
353.15 K, x1 = 0.6003	763 ± 0.8	–	1.6 ± 0.01
353.15 K, x1 = 0.8001	772.9 ± 0.8	–	1.79 ± 0.02
353.15 K, x1 = 1	782.5 ± 0.8	–	2.01 ± 0.02
363.15 K, x1 = 0.2002	735.6 ± 0.8	–	1.14 ± 0.01
363.15 K, x1 = 0.4001	746.1 ± 0.8	–	1.24 ± 0.01
363.15 K, x1 = 0.5001	751.1 ± 0.8	–	1.31 ± 0.01
363.15 K, x1 = 0.6003	756.2 ± 0.8	–	1.38 ± 0.01
363.15 K, x1 = 0.8001	766.2 ± 0.8	–	1.54 ± 0.01
363.15 K, x1 = 1	775.9 ± 0.8	–	1.72 ± 0.02
373.15 K, x1 = 0.2002	728.7 ± 0.8	–	0.978 ± 0.012
373.15 K, x1 = 0.4001	739.3 ± 0.8	–	1.08 ± 0.01
373.15 K, x1 = 0.5001	744.3 ± 0.8	–	1.14 ± 0.01
373.15 K, x1 = 0.6003	749.4 ± 0.8	–	1.21 ± 0.01
373.15 K, x1 = 0.8001	759.5 ± 0.8	–	1.34 ± 0.01
373.15 K, x1 = 1	769.2 ± 0.8	–	1.48 ± 0.01

CCCCCCC1CCCCC1 [hexylcyclohexane] + CCCCCCCCCCCCCCCC
Settings	mass density [kg/m3]	speed of sound [m/s]	viscosity [mPa·s]
293.15 K, x1 = 0.1003	775.83 ± 0.81	1357.1 ± 0.7	3.35 ± 0.03
293.15 K, x1 = 0.2002	778.43 ± 0.81	1356.8 ± 0.7	3.21 ± 0.02
293.15 K, x1 = 0.2996	781.19 ± 0.81	1356.9 ± 0.8	3.09 ± 0.02
293.15 K, x1 = 0.4192	784.77 ± 0.81	1357 ± 0.9	2.93 ± 0.02
293.15 K, x1 = 0.5004	787.39 ± 0.82	1357.1 ± 0.9	2.82 ± 0.02
293.15 K, x1 = 0.603	790.94 ± 0.82	1357.4 ± 1	2.7 ± 0.02
293.15 K, x1 = 0.8003	798.59 ± 0.83	1358.6 ± 1.2	2.44 ± 0.02
293.15 K, x1 = 1	807.71 ± 0.84	1361 ± 1.3	2.2 ± 0.02
303.15 K, x1 = 0.1003	768.88 ± 0.81	1319.8 ± 0.7	2.66 ± 0.02
303.15 K, x1 = 0.2002	771.48 ± 0.81	1319.5 ± 0.7	2.57 ± 0.02
303.15 K, x1 = 0.2996	774.23 ± 0.81	1319.6 ± 0.8	2.47 ± 0.02
303.15 K, x1 = 0.4192	777.8 ± 0.81	1319.6 ± 0.9	2.36 ± 0.02
303.15 K, x1 = 0.5004	780.41 ± 0.82	1319.7 ± 0.9	2.28 ± 0.02
303.15 K, x1 = 0.603	783.93 ± 0.82	1319.8 ± 1	2.19 ± 0.02
303.15 K, x1 = 0.8003	791.52 ± 0.83	1320.7 ± 1.2	2 ± 0.02
303.15 K, x1 = 1	800.56 ± 0.84	1322.1 ± 1.3	1.81 ± 0.02
313.15 K, x1 = 0.1003	761.95 ± 0.81	1283.2 ± 0.7	2.17 ± 0.02
313.15 K, x1 = 0.2002	764.54 ± 0.81	1282.8 ± 0.7	2.1 ± 0.02
313.15 K, x1 = 0.2996	767.28 ± 0.81	1282.9 ± 0.8	2.02 ± 0.02
313.15 K, x1 = 0.4192	770.83 ± 0.81	1282.8 ± 0.9	1.94 ± 0.02
313.15 K, x1 = 0.5004	773.42 ± 0.82	1282.9 ± 0.9	1.87 ± 0.02
313.15 K, x1 = 0.603	776.92 ± 0.82	1282.9 ± 1	1.8 ± 0.02
313.15 K, x1 = 0.8003	784.45 ± 0.83	1283.5 ± 1.2	1.65 ± 0.02
313.15 K, x1 = 1	793.4 ± 0.84	1284.2 ± 1.3	1.51 ± 0.02
323.15 K, x1 = 0.1003	755.02 ± 0.81	1247.3 ± 0.7	1.8 ± 0.01
323.15 K, x1 = 0.2002	757.6 ± 0.81	1246.9 ± 0.7	1.75 ± 0.01
323.15 K, x1 = 0.2996	760.32 ± 0.81	1246.9 ± 0.8	1.68 ± 0.01
323.15 K, x1 = 0.4192	763.85 ± 0.81	1246.7 ± 0.9	1.62 ± 0.01
323.15 K, x1 = 0.5004	766.42 ± 0.82	1246.7 ± 0.9	1.57 ± 0.01
323.15 K, x1 = 0.603	769.89 ± 0.82	1246.6 ± 1	1.52 ± 0.02
323.15 K, x1 = 0.8003	777.35 ± 0.83	1246.9 ± 1.2	1.4 ± 0.02
323.15 K, x1 = 1	786.22 ± 0.84	1247.1 ± 1.3	1.29 ± 0.02
333.15 K, x1 = 0.1003	748.09 ± 0.81	1212.3 ± 0.7	1.51 ± 0.01
333.15 K, x1 = 0.2002	750.65 ± 0.81	1211.9 ± 0.7	1.47 ± 0.01
333.15 K, x1 = 0.2996	753.35 ± 0.81	1211.7 ± 0.8	1.42 ± 0.01
333.15 K, x1 = 0.4192	756.86 ± 0.81	1211.5 ± 0.9	1.37 ± 0.01
333.15 K, x1 = 0.5004	759.41 ± 0.82	1211.4 ± 0.9	1.33 ± 0.01
333.15 K, x1 = 0.603	762.86 ± 0.82	1211.2 ± 1	1.29 ± 0.01
333.15 K, x1 = 0.8003	770.24 ± 0.83	1211.1 ± 1.2	1.2 ± 0.01
333.15 K, x1 = 1	779.02 ± 0.84	1211 ± 1.3	1.09 ± 0.01
343.15 K, x1 = 0.1003	741.2 ± 0.8	–	1.29 ± 0.01
343.15 K, x1 = 0.2002	743.7 ± 0.8	–	1.27 ± 0.01
343.15 K, x1 = 0.2996	746.5 ± 0.8	–	1.22 ± 0.01
343.15 K, x1 = 0.4192	749.9 ± 0.8	–	1.18 ± 0.01
343.15 K, x1 = 0.5004	752.4 ± 0.8	–	1.15 ± 0.01
343.15 K, x1 = 0.603	755.9 ± 0.8	–	1.13 ± 0.01
343.15 K, x1 = 0.8003	763.1 ± 0.8	–	1.05 ± 0.01
343.15 K, x1 = 1	771.8 ± 0.8	–	0.964 ± 0.013
353.15 K, x1 = 0.1003	734.2 ± 0.8	–	1.12 ± 0.01
353.15 K, x1 = 0.2002	736.7 ± 0.8	–	1.09 ± 0.01
353.15 K, x1 = 0.2996	739.5 ± 0.8	–	1.06 ± 0.01
353.15 K, x1 = 0.4192	742.9 ± 0.8	–	1.02 ± 0.01
353.15 K, x1 = 0.5004	745.4 ± 0.8	–	1 ± 0.01
353.15 K, x1 = 0.603	748.8 ± 0.8	–	0.971 ± 0.012
353.15 K, x1 = 0.8003	756 ± 0.8	–	0.919 ± 0.013
353.15 K, x1 = 1	764.6 ± 0.8	–	0.847 ± 0.013
363.15 K, x1 = 0.1003	727.3 ± 0.8	–	0.981 ± 0.012
363.15 K, x1 = 0.2002	729.7 ± 0.8	–	0.977 ± 0.012
363.15 K, x1 = 0.2996	732.5 ± 0.8	–	0.931 ± 0.012
363.15 K, x1 = 0.4192	735.9 ± 0.8	–	0.901 ± 0.012
363.15 K, x1 = 0.5004	738.3 ± 0.8	–	0.88 ± 0.012
363.15 K, x1 = 0.603	741.7 ± 0.8	–	0.873 ± 0.012
363.15 K, x1 = 0.8003	748.8 ± 0.8	–	0.817 ± 0.012
363.15 K, x1 = 1	757.3 ± 0.8	–	0.758 ± 0.012
